Measurements: US8017350B2, “Glimepiride- and insulin-induced glycosylphosphatidylinositol-specific phospholipase C regulation” (Sanofi-Aventis Deutschland GmbH, priority 2004, dated 2011)

Experiments:
[1] = system: Hormone-sensitive lipase (HSL); experiment: hormone-sensitive lipase assay (radiolabeled triolein emulsion); format: biochemical; conditions: 50 μM
Procedure: (§1) Hormone-sensitive lipase (HSL) and lipoprotein lipase (LPL) were measured using a radiolabeled triolein droplet emulsion as described in “Vertesy et al., (2002) Journal Antibiotics 55:480-494”. Pancreatic lipase (PL) was determined by incubation of 0.25 mmol tributyrin in 2 ml of 5 mM Tris/HCl (pH 6.5), 6 mM sodium taurodeoxycholate, 150 mM NaCl, 1 mM CaCl2 with porcine PL and colipase in the same buffer using a recording pH stat (stirring at 1000 rpm at 25° C.) with the pH adjusted to 6.5. PC-PLC was assayed by incubation of 0.2 ml of 10 mM dipalmitoyllecithin, 0.1 ml of 10 mM SDC and 0.1 ml of 0.03 M CaCl2 with bacterial PC-PLC (in 50 mM Tris/HCl, pH 7.5, 0.1% BSA) for 10 min at 37° C. The reaction was terminated by addition of 0.1 ml of 50% TCA and subsequently of 2.5 ml of […]. After centrifugation (1500×g, 15 min), 0.2-ml portions of the upper methanol/water phase (˜1.33 ml) were removed, supplemented with 0.5 ml of 60% HClO4, then heated at 170° C. for 1 h and finally analyzed for inorganic phosphate. Mammalian PI-PLC was measured by incubation of 0.1 ml of 10 mM PI, 0.1 ml of 0.8% sodium deoxycholate, 0.1% BSA, 0.2 ml of 100 mM sodium borate (pH 7.5) and rat liver PI-PLC for 20 min at 37° C. The reaction was terminated and further processed as described for the PC-PLC. […] Radioactive phosphatidic acid was detected by phosphorimaging. […]

cabbage PLD = experiment: PLD assay ([14C]phosphatidylcholine); format: biochemical; conditions: 50 μM
Procedure: as §1

Structure (SMILES): CCCCCCCCCCCCP1(=O)O[C@@H]2[C@H](O)[C@@H](O)[C@H](O)[C@@H](O)[C@@H]2O1 (some centres unmarked) [GPI-2350, myo-inositol-1,2-cyclo-dodecylphosphonic acid]
- effect on HSL [1]: not significantly affected
- effect on PLD (cabbage PLD): not significantly affected
